Assay results from ChEMBL document CHEMBL4219122, “Synthesis and biological evaluation of histone deacetylase and DNA topoisomerase II-Targeted inhibitors” (Bioorg Med Chem, 2018).
Activity calls are given as the source filed them. No cut-off for these calls is given here.

Experiments:
SNB-78 = assay: Growth inhibition of human SNB78 cells after 48 hrs by sulforhodamine B-based colorimetric assay; assay type: functional; settings: SNB-78, 48 h
[1] = Growth inhibition of human HBC4 cells after 48 hrs by sulforhodamine B-based colorimetric assay; assay type: functional; settings: HBC4, 48 h
MKN-28 = assay: Growth inhibition of human MKN28 cells after 48 hrs by sulforhodamine B-based colorimetric assay; assay type: functional; settings: MKN-28, 48 h
Histone deacetylase 1 = Histone deacetylase 1 (Homo sapiens, UniProt Q13547); assay: Inhibition of recombinant human HDAC1 expressed in HEK293T cells using Ac-KGLGK(Ac)-MCA as substrate after 30 mins in presence of DTT by fluorescence assay
LOX IMVI = assay: Growth inhibition of human LOXIMVI cells after 48 hrs by sulforhodamine B-based colorimetric assay; assay type: functional
MKN-7 = assay: Growth inhibition of human MKN7 cells after 48 hrs by sulforhodamine B-based colorimetric assay; assay type: functional; settings: MKN-7, 48 h
MCF7 = assay: Growth inhibition of human MCF7 cells after 48 hrs by sulforhodamine B-based colorimetric assay; assay type: functional, cell-based; settings: MCF7, 48 h
SF-539 = assay: Growth inhibition of human SF539 cells after 48 hrs by sulforhodamine B-based colorimetric assay; assay type: functional; settings: SF-539, 48 h
SF-295 = assay: Growth inhibition of human SF295 cells after 48 hrs by sulforhodamine B-based colorimetric assay; assay type: functional; settings: SF-295, 48 h
HCT-15 = assay: Growth inhibition of human HCT15 cells after 48 hrs by sulforhodamine B-based colorimetric assay; assay type: functional; settings: HCT-15, 48 h
OVCAR-4 = assay: Growth inhibition of human OVCAR4 cells after 48 hrs by sulforhodamine B-based colorimetric assay; assay type: functional; settings: OVCAR-4, 48 h
[2] = Growth inhibition of human HBC5 cells after 48 hrs by sulforhodamine B-based colorimetric assay; assay type: functional; settings: HBC5, 48 h
NCI-H522 = assay: Growth inhibition of human NCI-H522 cells after 48 hrs by sulforhodamine B-based colorimetric assay; assay type: functional; settings: NCI-H522, 48 h
RXF 631 = assay: Growth inhibition of human RXF631L cells after 48 hrs by sulforhodamine B-based colorimetric assay; assay type: functional; settings: RXF 631, 48 h
ACHN = assay: Growth inhibition of human ACHN cells after 48 hrs by sulforhodamine B-based colorimetric assay; assay type: functional
U-251 = assay: Growth inhibition of human U251 cells after 48 hrs by sulforhodamine B-based colorimetric assay; assay type: functional; settings: U-251, 48 h
[3] = target: DNA topoisomerase 2-alpha (Homo sapiens, UniProt P11388); assay: Inhibition of human topoisomerase-2 alpha-mediated kinetoplast DNA decatenation at 100 to 400 uM after 30 mins by ethidium bromide staining based agarose gel electrophoresis
OVCAR-5 = assay: Growth inhibition of human OVCAR5 cells after 48 hrs by sulforhodamine B-based colorimetric assay; assay type: functional; settings: OVCAR-5, 48 h
KM12 = assay: Growth inhibition of human KM12 cells after 48 hrs by sulforhodamine B-based colorimetric assay; assay type: functional; settings: KM12, 48 h
OVCAR-3 = assay: Growth inhibition of human OVCAR3 cells after 48 hrs by sulforhodamine B-based colorimetric assay; assay type: functional; settings: OVCAR-3, 48 h
NCI-H460 = assay: Growth inhibition of human NCI-H460 cells after 48 hrs by sulforhodamine B-based colorimetric assay; assay type: functional; settings: NCI-H460, 48 h
SF-268 = assay: Growth inhibition of human SF268 cells after 48 hrs by sulforhodamine B-based colorimetric assay; assay type: functional; settings: SF-268, 48 h
DMS-273 = assay: Growth inhibition of human DMS273 cells after 48 hrs by sulforhodamine B-based colorimetric assay; assay type: functional; settings: DMS-273, 48 h
St-4 = assay: Growth inhibition of human St-4 cells after 48 hrs by sulforhodamine B-based colorimetric assay; assay type: functional; settings: St-4, 48 h
DMS-114 = assay: Growth inhibition of human DMS114 cells after 48 hrs by sulforhodamine B-based colorimetric assay; assay type: functional; settings: DMS-114, 48 h
HCT-116 = assay: Growth inhibition of human HCT116 cells after 48 hrs by sulforhodamine B-based colorimetric assay; assay type: functional, cell-based; settings: HCT-116, 48 h
MKN-45 = assay: Growth inhibition of human MKN45 cells after 48 hrs by sulforhodamine B-based colorimetric assay; assay type: functional; settings: MKN-45, 48 h
[4] = Growth inhibition of human BSY1 cells after 48 hrs by sulforhodamine B-based colorimetric assay; assay type: functional; settings: BSY-1, 48 h
NCI-H226 = assay: Growth inhibition of human NCI-H226 cells after 48 hrs by sulforhodamine B-based colorimetric assay; assay type: functional; settings: NCI-H226, 48 h
NCI-H23 = assay: Growth inhibition of human NCI-H23 cells after 48 hrs by sulforhodamine B-based colorimetric assay; assay type: functional; settings: NCI-H23, 48 h
SNB-75 = assay: Growth inhibition of human SNB75 cells after 48 hrs by sulforhodamine B-based colorimetric assay; assay type: functional; settings: SNB-75, 48 h
SK-OV-3 = assay: Growth inhibition of human SKOV3 cells after 48 hrs by sulforhodamine B-based colorimetric assay; assay type: functional; settings: SK-OV-3, 48 h

Sequence of Histone deacetylase 1 (Q13547 whole entry): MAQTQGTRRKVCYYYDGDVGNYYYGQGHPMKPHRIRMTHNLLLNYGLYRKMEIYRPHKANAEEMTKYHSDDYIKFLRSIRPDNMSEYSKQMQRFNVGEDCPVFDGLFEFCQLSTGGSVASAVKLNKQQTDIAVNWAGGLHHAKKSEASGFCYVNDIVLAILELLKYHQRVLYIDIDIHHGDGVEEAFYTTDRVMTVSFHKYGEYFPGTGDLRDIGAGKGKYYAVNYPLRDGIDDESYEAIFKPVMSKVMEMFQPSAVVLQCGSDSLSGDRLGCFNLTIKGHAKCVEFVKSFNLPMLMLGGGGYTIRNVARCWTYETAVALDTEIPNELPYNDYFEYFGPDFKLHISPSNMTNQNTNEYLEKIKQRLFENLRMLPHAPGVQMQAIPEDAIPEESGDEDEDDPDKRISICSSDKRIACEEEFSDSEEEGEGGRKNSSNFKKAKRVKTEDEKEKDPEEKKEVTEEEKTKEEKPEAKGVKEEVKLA
Sequence of DNA topoisomerase 2-alpha (P11388 whole entry): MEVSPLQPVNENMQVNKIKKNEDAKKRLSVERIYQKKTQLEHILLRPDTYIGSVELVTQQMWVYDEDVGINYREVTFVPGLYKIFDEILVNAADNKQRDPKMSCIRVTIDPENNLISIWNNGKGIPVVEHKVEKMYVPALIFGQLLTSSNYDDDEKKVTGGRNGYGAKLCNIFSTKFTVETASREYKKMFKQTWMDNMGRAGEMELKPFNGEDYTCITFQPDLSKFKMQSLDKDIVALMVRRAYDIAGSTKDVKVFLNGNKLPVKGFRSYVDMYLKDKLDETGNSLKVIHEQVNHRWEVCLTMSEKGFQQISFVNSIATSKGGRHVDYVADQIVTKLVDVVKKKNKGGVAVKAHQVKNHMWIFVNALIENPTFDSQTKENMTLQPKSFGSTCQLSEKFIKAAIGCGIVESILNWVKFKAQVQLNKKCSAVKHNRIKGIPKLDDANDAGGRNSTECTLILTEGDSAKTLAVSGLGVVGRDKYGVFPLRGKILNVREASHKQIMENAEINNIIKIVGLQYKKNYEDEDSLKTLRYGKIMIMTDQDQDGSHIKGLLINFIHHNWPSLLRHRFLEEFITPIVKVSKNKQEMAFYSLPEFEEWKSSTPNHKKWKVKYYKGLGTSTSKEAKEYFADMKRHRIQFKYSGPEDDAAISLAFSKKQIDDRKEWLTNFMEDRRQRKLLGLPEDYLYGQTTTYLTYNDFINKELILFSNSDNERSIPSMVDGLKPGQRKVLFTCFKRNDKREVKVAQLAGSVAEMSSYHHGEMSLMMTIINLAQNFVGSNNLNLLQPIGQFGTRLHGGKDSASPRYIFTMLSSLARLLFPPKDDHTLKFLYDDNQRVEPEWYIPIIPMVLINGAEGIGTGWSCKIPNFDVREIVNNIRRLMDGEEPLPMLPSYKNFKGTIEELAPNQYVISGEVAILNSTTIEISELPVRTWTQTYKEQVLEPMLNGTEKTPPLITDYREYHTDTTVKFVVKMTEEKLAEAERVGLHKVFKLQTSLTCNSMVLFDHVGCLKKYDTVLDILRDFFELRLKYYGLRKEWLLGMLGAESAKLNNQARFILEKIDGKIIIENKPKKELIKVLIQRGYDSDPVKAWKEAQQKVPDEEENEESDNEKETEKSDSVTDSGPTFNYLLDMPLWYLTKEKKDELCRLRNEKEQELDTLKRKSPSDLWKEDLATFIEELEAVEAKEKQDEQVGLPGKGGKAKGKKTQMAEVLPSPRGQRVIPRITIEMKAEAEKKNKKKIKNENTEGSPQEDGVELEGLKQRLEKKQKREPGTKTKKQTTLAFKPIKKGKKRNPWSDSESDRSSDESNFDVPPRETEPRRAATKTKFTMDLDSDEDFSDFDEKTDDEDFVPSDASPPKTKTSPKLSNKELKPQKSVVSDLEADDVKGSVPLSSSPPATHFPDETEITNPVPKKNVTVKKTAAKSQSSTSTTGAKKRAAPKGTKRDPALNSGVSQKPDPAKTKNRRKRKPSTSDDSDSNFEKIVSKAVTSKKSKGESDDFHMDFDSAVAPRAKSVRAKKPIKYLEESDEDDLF

Row | GI50 (MKN-28) | IC50 (Histone deacetylase 1) | GI50 (MKN-7) | GI50 (MCF7; read-out: GI50) | GI50 (MCF7; read-out: pGI50 (converted)) | GI50 (HCT-15) | GI50 (OVCAR-4) | GI50 (NCI-H522) | GI50 (ACHN) | GI50 (U-251) | inhibition [3] | GI50 (OVCAR-5) | Structure (SMILES) | GI50 (SNB-78) | GI50 [1] | GI50 (LOX IMVI) | GI50 (SF-539) | GI50 (SF-295) | GI50 [2] | GI50 (RXF 631) | GI50 (KM12) | also measured
1 | 3.72 µM | 0.73 µM | 2.95 µM | 3.24 µM | 3.24 µM | 3.55 µM | 3.24 µM | 2.69 µM | 4.37 µM | 3.98 µM | Active | 4.9 µM | Cc1cn([C@H]2C[C@H](C3(c4ccc(NC(=O)CCCCCCC(=O)NO)cc4)SCCCS3)[C@@H](CO[Si](C)(C)C(C)(C)C)O2)c(=O)[nH]c1=O | 6.76 µM | 3.89 µM | 1.78 µM | 3.39 µM | 4.9 µM | 6.46 µM | 3.63 µM | 4.57 µM | GI50 (OVCAR-3): 2.95 µM; GI50 (NCI-H460): 3.98 µM; GI50 (SF-268): 4.37 µM; GI50 (DMS-273): 3.89 µM; GI50 (St-4): 4.07 µM; GI50 (DMS-114): 3.09 µM; GI50 (HCT-116; read-out: GI50): 3.39 µM; GI50 (HCT-116; read-out: pGI50 (converted)): 3.39 µM; GI50 (MKN-45): 3.8 µM; GI50 [4]: 2.63 µM; GI50 (NCI-H226): 3.89 µM; GI50 (NCI-H23): 4.68 µM; GI50 (SNB-75): 5.37 µM; GI50 (SK-OV-3): 4.07 µM
2 | 4.27 µM | 1.1 µM | 3.47 µM | 3.89 µM | 3.89 µM | 15.5 µM | 3.98 µM | 2.69 µM | 9.33 µM | 5.13 µM | Active | 6.61 µM | Cc1cn([C@@H]2C[C@H](C3(c4ccc(NC(=O)CCCCCCC(=O)NO)cc4)SCCCS3)[C@@H](CO[Si](C)(C)C(C)(C)C)O2)c(=O)[nH]c1=O | 10 µM | 4.17 µM | 2.14 µM | 4.57 µM | 6.92 µM | 6.31 µM | 11.2 µM | 6.76 µM | GI50 (OVCAR-3): 3.02 µM; GI50 (NCI-H460): 4.68 µM; GI50 (SF-268): 6.03 µM; GI50 (DMS-273): 3.98 µM; GI50 (St-4): 8.71 µM; GI50 (DMS-114): 3.55 µM; GI50 (HCT-116; read-out: GI50): 4.17 µM; GI50 (HCT-116; read-out: pGI50 (converted)): 4.17 µM; GI50 (MKN-45): 10 µM; GI50 [4]: 2.63 µM; GI50 (NCI-H226): 10.2 µM; GI50 (NCI-H23): 7.94 µM; GI50 (SNB-75): 5.5 µM; GI50 (SK-OV-3): 12.9 µM
